System: Key Grass and Sedge Weeds as well as Grass Crops
Experiment: Post-Emergent Test II (Table 6)
Type: in vivo
Conditions: post-emergence, 336 h, CYPSS, 70 g ai/ha, 14 days after application, read-out: Visual Growth Reduction (%) 14 Days After Application CYPSS
Method in brief: (§1)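 Visual injury ratings (0 = no injury, 100 = complete kill) were taken 14 days after treatment relative to untreated plants. Seedlings at the first or second true leaf stage received an overhead spray at 187 L/ha, and solvent-blank sprayed plants served as controls.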

Question: Which pest or weed control at 70 g/ha does the source give for `COC(=O)c1nc(-c2ccc(C(F)(F)F)nc2F)c(F)c(N)c1Cl` [Compound 24] here?
Answer: 45 to 59%

Same assay, conditions: post-emergence, 336 h, CYPSS, 140 g ai/ha, 14 days after application, read-out: Visual Growth Reduction (%) 14 Days After Application CYPSS

Question: Which pest or weed control at 140 g/ha does the source give for `COC(=O)c1nc(-c2ccc(C(F)(F)F)nc2F)c(F)c(N)c1Cl` [Compound 24] here?
Answer: 95 to 100%

Same assay, conditions: post-emergence, 336 h, DIGSA: crabgrass (Digitaria sanguinalis), 70 g ai/ha, 14 days after application, read-out: Visual Growth Reduction (%) 14 Days After Application DIGSA

Question: With `COC(=O)c1nc(-c2ccc(C(F)(F)F)nc2F)c(F)c(N)c1Cl` [Compound 24] as the molecule, how does the pest or weed control at 70 g/ha read?
Answer: 0 to 29%

Same assay, conditions: post-emergence, 336 h, DIGSA: crabgrass (Digitaria sanguinalis), 140 g ai/ha, 14 days after application, read-out: Visual Growth Reduction (%) 14 Days After Application DIGSA

Question: For `COC(=O)c1nc(-c2ccc(C(F)(F)F)nc2F)c(F)c(N)c1Cl` [Compound 24], which pest or weed control at 140 g/ha is on record?
Answer: 75 to 84%

Same assay, conditions: post-emergence, 336 h, ECHSS, 70 g ai/ha, 14 days after application, read-out: Visual Growth Reduction (%) 14 Days After Application ECHSS

Question: For `COC(=O)c1nc(-c2ccc(C(F)(F)F)nc2F)c(F)c(N)c1Cl` [Compound 24], which pest or weed control at 70 g/ha is on record?
Answer: 45 to 59%

Same assay, conditions: post-emergence, 336 h, ECHSS, 140 g ai/ha, 14 days after application, read-out: Visual Growth Reduction (%) 14 Days After Application ECHSS

Question: With `COC(=O)c1nc(-c2ccc(C(F)(F)F)nc2F)c(F)c(N)c1Cl` [Compound 24] as the molecule, how does the pest or weed control at 140 g/ha read?
Answer: 60 to 74%

Same assay, conditions: post-emergence, 336 h, ORYSS (crop), 70 g ai/ha, 14 days after application, read-out: Visual Growth Reduction (%) 14 Days After Application ORYSS

Question: With `COC(=O)c1nc(-c2ccc(C(F)(F)F)nc2F)c(F)c(N)c1Cl` [Compound 24] as the molecule, how does the pest or weed control at 70 g/ha read?
Answer: 0 to 29%

Same assay, conditions: post-emergence, 336 h, ORYSS (crop), 140 g ai/ha, 14 days after application, read-out: Visual Growth Reduction (%) 14 Days After Application ORYSS

Question: Which pest or weed control at 140 g/ha does the source give for `COC(=O)c1nc(-c2ccc(C(F)(F)F)nc2F)c(F)c(N)c1Cl` [Compound 24] here?
Answer: 0 to 29%

Same assay, conditions: post-emergence, 336 h, SETFA: giant foxtail (Setaria faberi), 70 g ai/ha, 14 days after application, read-out: Visual Growth Reduction (%) 14 Days After Application SETFA

Question: For `COC(=O)c1nc(-c2ccc(C(F)(F)F)nc2F)c(F)c(N)c1Cl` [Compound 24], which pest or weed control at 70 g/ha is on record?
Answer: 75 to 84%

Same assay, conditions: post-emergence, 336 h, SETFA: giant foxtail (Setaria faberi), 140 g ai/ha, 14 days after application, read-out: Visual Growth Reduction (%) 14 Days After Application SETFA

Question: For `COC(=O)c1nc(-c2ccc(C(F)(F)F)nc2F)c(F)c(N)c1Cl` [Compound 24], which pest or weed control at 140 g/ha is on record?
Answer: 75 to 84%

Same assay, conditions: post-emergence, 336 h, SORVU: grain sorghum (Sorghum vulgare), 70 g ai/ha, 14 days after application, read-out: Visual Growth Reduction (%) 14 Days After Application SORVU

Question: With `COC(=O)c1nc(-c2ccc(C(F)(F)F)nc2F)c(F)c(N)c1Cl` [Compound 24] as the molecule, how does the pest or weed control at 70 g/ha read?
Answer: 30 to 44%

Same assay, conditions: post-emergence, 336 h, SORVU: grain sorghum (Sorghum vulgare), 140 g ai/ha, 14 days after application, read-out: Visual Growth Reduction (%) 14 Days After Application SORVU

Question: With `COC(=O)c1nc(-c2ccc(C(F)(F)F)nc2F)c(F)c(N)c1Cl` [Compound 24] as the molecule, how does the pest or weed control at 140 g/ha read?
Answer: 45 to 59%

Same assay, conditions: post-emergence, 336 h, TRZSS (crop), 70 g ai/ha, 14 days after application, read-out: Visual Growth Reduction (%) 14 Days After Application TRZSS

Question: For `COC(=O)c1nc(-c2ccc(C(F)(F)F)nc2F)c(F)c(N)c1Cl` [Compound 24], which pest or weed control at 70 g/ha is on record?
Answer: 0 to 29%

Same assay, conditions: post-emergence, 336 h, TRZSS (crop), 140 g ai/ha, 14 days after application, read-out: Visual Growth Reduction (%) 14 Days After Application TRZSS

Question: With `COC(=O)c1nc(-c2ccc(C(F)(F)F)nc2F)c(F)c(N)c1Cl` [Compound 24] as the molecule, how does the pest or weed control at 140 g/ha read?
Answer: 0 to 29%

Same assay, conditions: post-emergence, 336 h, ZEAMX: maize, corn (Zea mays), 70 g ai/ha, 14 days after application, read-out: Visual Growth Reduction (%) 14 Days After Application ZEAMX

Question: For `COC(=O)c1nc(-c2ccc(C(F)(F)F)nc2F)c(F)c(N)c1Cl` [Compound 24], which pest or weed control at 70 g/ha is on record?
Answer: 0 to 29%

Same assay, conditions: post-emergence, 336 h, ZEAMX: maize, corn (Zea mays), 140 g ai/ha, 14 days after application, read-out: Visual Growth Reduction (%) 14 Days After Application ZEAMX

Question: With `COC(=O)c1nc(-c2ccc(C(F)(F)F)nc2F)c(F)c(N)c1Cl` [Compound 24] as the molecule, how does the pest or weed control at 140 g/ha read?
Answer: 95 to 100%

System: Key Broadleaf Weed and Crop Species
Experiment: Post-Emergent Test II (Table 5)
Type: in vivo
Conditions: Abutilon theophrasti, post-emergence, 336 h, ABUTH: velvetleaf (Abutilon theophrasti), application rate 70 (kg ai/ha; footnote: g ai/ha), read-out: Visual Growth Reduction (%) 14 Days After Application ABUTH
Method in brief: as §1

Question: With `COC(=O)c1nc(-c2ccc(C(F)(F)F)nc2F)c(F)c(N)c1Cl` [Compound 24] as the molecule, how does the pest or weed control at 70 g/ha read?
Answer: 75 to 84%

Same assay, conditions: Abutilon theophrasti, post-emergence, 336 h, ABUTH: velvetleaf (Abutilon theophrasti), application rate 140 (kg ai/ha; footnote: g ai/ha), read-out: Visual Growth Reduction (%) 14 Days After Application ABUTH

Question: For `COC(=O)c1nc(-c2ccc(C(F)(F)F)nc2F)c(F)c(N)c1Cl` [Compound 24], which pest or weed control at 140 g/ha is on record?
Answer: 75 to 84%

Same assay, conditions: Amaranthus retroflexus, post-emergence, 336 h, AMARE: redroot pigweed (Amaranthus retroflexus), application rate 70 (kg ai/ha; footnote: g ai/ha), read-out: Visual Growth Reduction (%) 14 Days After Application AMARE

Question: Which pest or weed control at 70 g/ha does the source give for `COC(=O)c1nc(-c2ccc(C(F)(F)F)nc2F)c(F)c(N)c1Cl` [Compound 24] here?
Answer: 75 to 84%

Same assay, conditions: Amaranthus retroflexus, post-emergence, 336 h, AMARE: redroot pigweed (Amaranthus retroflexus), application rate 140 (kg ai/ha; footnote: g ai/ha), read-out: Visual Growth Reduction (%) 14 Days After Application AMARE

Question: For `COC(=O)c1nc(-c2ccc(C(F)(F)F)nc2F)c(F)c(N)c1Cl` [Compound 24], which pest or weed control at 140 g/ha is on record?
Answer: 95 to 100%

Same assay, conditions: Brassica napus, post-emergence, 336 h, BRSSS: oilseed rape, canola (Brassica napus), application rate 70 (kg ai/ha; footnote: g ai/ha), read-out: Visual Growth Reduction (%) 14 Days After Application BRSSS

Question: With `COC(=O)c1nc(-c2ccc(C(F)(F)F)nc2F)c(F)c(N)c1Cl` [Compound 24] as the molecule, how does the pest or weed control at 70 g/ha read?
Answer: 60 to 74%

Same assay, conditions: Brassica napus, post-emergence, 336 h, BRSSS: oilseed rape, canola (Brassica napus), application rate 140 (kg ai/ha; footnote: g ai/ha), read-out: Visual Growth Reduction (%) 14 Days After Application BRSSS

Question: Which pest or weed control at 140 g/ha does the source give for `COC(=O)c1nc(-c2ccc(C(F)(F)F)nc2F)c(F)c(N)c1Cl` [Compound 24] here?
Answer: 75 to 84%

Same assay, conditions: Chenopodium album, post-emergence, 336 h, CHEAL: lambsquarters (Chenopodium album), application rate 70 (kg ai/ha; footnote: g ai/ha), read-out: Visual Growth Reduction (%) 14 Days After Application CHEAL

Question: For `COC(=O)c1nc(-c2ccc(C(F)(F)F)nc2F)c(F)c(N)c1Cl` [Compound 24], which pest or weed control at 70 g/ha is on record?
Answer: 95 to 100%

Same assay, conditions: Chenopodium album, post-emergence, 336 h, CHEAL: lambsquarters (Chenopodium album), application rate 140 (kg ai/ha; footnote: g ai/ha), read-out: Visual Growth Reduction (%) 14 Days After Application CHEAL

Question: With `COC(=O)c1nc(-c2ccc(C(F)(F)F)nc2F)c(F)c(N)c1Cl` [Compound 24] as the molecule, how does the pest or weed control at 140 g/ha read?
Answer: 95 to 100%

Same assay, conditions: Euphorbia heterophylla, post-emergence, 336 h, EPHHL: wild poinsettia (Euphorbia heterophylla), application rate 70 (kg ai/ha; footnote: g ai/ha), read-out: Visual Growth Reduction (%) 14 Days After Application EPHHL

Question: Which pest or weed control at 70 g/ha does the source give for `COC(=O)c1nc(-c2ccc(C(F)(F)F)nc2F)c(F)c(N)c1Cl` [Compound 24] here?
Answer: 85 to 94%

Same assay, conditions: Euphorbia heterophylla, post-emergence, 336 h, EPHHL: wild poinsettia (Euphorbia heterophylla), application rate 140 (kg ai/ha; footnote: g ai/ha), read-out: Visual Growth Reduction (%) 14 Days After Application EPHHL

Question: With `COC(=O)c1nc(-c2ccc(C(F)(F)F)nc2F)c(F)c(N)c1Cl` [Compound 24] as the molecule, how does the pest or weed control at 140 g/ha read?
Answer: 85 to 94%

Same assay, conditions: Helianthus annuus, post-emergence, 336 h, HELAN: sunflower (Helianthus annuus), application rate 70 (kg ai/ha; footnote: g ai/ha), read-out: Visual Growth Reduction (%) 14 Days After Application HELAN

Question: With `COC(=O)c1nc(-c2ccc(C(F)(F)F)nc2F)c(F)c(N)c1Cl` [Compound 24] as the molecule, how does the pest or weed control at 70 g/ha read?
Answer: 95 to 100%

Same assay, conditions: Helianthus annuus, post-emergence, 336 h, HELAN: sunflower (Helianthus annuus), application rate 140 (kg ai/ha; footnote: g ai/ha), read-out: Visual Growth Reduction (%) 14 Days After Application HELAN

Question: With `COC(=O)c1nc(-c2ccc(C(F)(F)F)nc2F)c(F)c(N)c1Cl` [Compound 24] as the molecule, how does the pest or weed control at 140 g/ha read?
Answer: 95 to 100%

Same assay, conditions: Viola tricolor, post-emergence, 336 h, VIOTR: wild pansy (Viola tricolor), application rate 70 (kg ai/ha; footnote: g ai/ha), read-out: Visual Growth Reduction (%) 14 Days After Application VIOTR

Question: Which pest or weed control at 70 g/ha does the source give for `COC(=O)c1nc(-c2ccc(C(F)(F)F)nc2F)c(F)c(N)c1Cl` [Compound 24] here?
Answer: 0 to 29%

Same assay, conditions: Viola tricolor, post-emergence, 336 h, VIOTR: wild pansy (Viola tricolor), application rate 140 (kg ai/ha; footnote: g ai/ha), read-out: Visual Growth Reduction (%) 14 Days After Application VIOTR

Question: With `COC(=O)c1nc(-c2ccc(C(F)(F)F)nc2F)c(F)c(N)c1Cl` [Compound 24] as the molecule, how does the pest or weed control at 140 g/ha read?
Answer: 0 to 29%

System: not given
Experiment: not given
Conditions: not given

Question: With `COC(=O)c1nc(-c2ccc(C(F)(F)F)nc2F)c(F)c(N)c1Cl` [Compound 24] as the molecule, how does the melting point read?
Answer: 128 °C

Reference: patent US10765114B2, “4-amino-6-(pyridyl and 2-substitutedphenyl)-picolinates and 6-amino-2-(pyridyl and 2-substitutedphenyl)-pyrimidine-4-carboxylates and their use as herbicides” (Dow AgroSciences LLC, priority 2013, dated 2020)
